The values below come from patent publication US11141410B2 (MERCK SHARP & DOHME CORP., priority 2015, dated 2021).

Like-named read-outs stand apart in the source and are kept apart here. Bounds are passed on as bounds.

For experiment [1], the system named is MRSA COL (MB5393). In words: TarO Inhibitor/β-Lactam Synergy Assay (growth, OD600). The following applies: Staphylococcus aureus, read-out: MITC95 TarO inhibitor alone, Bacteria: SA_MB5393. It is filed as cell-based.
The test system of experiment [2] is MRSA COL (MB5393). Described as above. The following applies: for MITC95 TarO inhibitor + 4 μg/mL IPM; Bacteria: SA_MB5393: in combination with 4 μg/mL imipenem (IPM); for MITC95 TarO inhibitor + 8 μg/mL DCX; Bacteria: SA_MB5393: in combination with 8 μg/mL dicloxacillin (DCX). It is filed as cell-based, Staphylococcus aureus. The procedure, abridged: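 TarO inhibitors titrated 2-fold from 200 μM (2% DMSO) against MRSA COL, 5×10^5 CFU in CAMHB, with β-lactam fixed at clinical breakpoint (imipenem 4 μg/ml or dicloxacillin 8 μg/ml). Incubated 20 h at 37 °C without shaking; relative growth read as OD600.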

[3] abbreviates: TarO inhibitor alone, >200 μM = 95% growth inhibition not achieved, 20 hours at 37° C.

As for `O=C(NCc1cccc2cncnc12)N1C(=O)O[C@H](c2cc(C(F)(F)F)cc(C(F)(F)F)c2)[C@@H]1CO` [Example 54, (4S,5R)-5-[3,5-bis(trifluoromethyl)phenyl]-4-(hydroxymethyl)-2-oxo-N-(quinazolin-8-yl-methyl)-1,3-oxazolidine-3-carboxamide], in the experiment on MRSA COL (MB5393) [1] (setting [3]), the IC95 was over 200 µM. In addition, in the experiment with MRSA COL (MB5393) [2], the “MITC95 TarO inhibitor + 4 μg/mL IPM; Bacteria: SA_MB5393” value (shortened to “MITC95 TarO inhibitor + 4 μg/mL IPM”) came to 0.20 µM and the “MITC95 TarO inhibitor + 8 μg/mL DCX; Bacteria: SA_MB5393” value (shortened to “MITC95 TarO inhibitor + 8 μg/mL DCX”) came out at 0.65 µM.
Regarding `COc1cc([C@H]2OC(=O)N(C(=O)NCc3cncc4ccccc34)[C@H]2CO)cc(C(F)(F)F)c1` [Example 55, (4S,5R)-4-(hydroxymethyl)-N-(isoquinolin-4-ylmethyl)-5-[3-methoxy-5-(trifluoromethyl)phenyl]-2-oxo-1,3-oxazolidine-3-carboxamide], in the experiment with MRSA COL (MB5393) [1] (setting [3]), the IC95 is over 200 µM. Besides, in the experiment with MRSA COL (MB5393) [2], the “MITC95 TarO inhibitor + 4 μg/mL IPM” value came to 0.30 µM and the “MITC95 TarO inhibitor + 8 μg/mL DCX” value was 1.18 µM.
For `O=C(NCc1cncc2ccccc12)N1C(=O)O[C@H](c2cc(F)cc(C(F)(F)F)c2)[C@@H]1CO` [Example 57, (4S,5R)-5-[3-fluoro-5-(trifluoromethyl)phenyl]-4-(hydroxymethyl)-N-(isoquinolin-4-ylmethyl)-2-oxo-1,3-oxazolidine-3-carboxamide], the IC95 with MRSA COL (MB5393) [1] (setting [3]) is over 200 µM. Further, in the experiment on MRSA COL (MB5393) [2], the “MITC95 TarO inhibitor + 4 μg/mL IPM” value turned out to be 0.33 µM and the “MITC95 TarO inhibitor + 8 μg/mL DCX” value turned out to be 1.56 µM.
In the case of `COc1cc([C@H]2OC(=O)N(C(=O)NCc3cccc4nccnc34)[C@H]2CO)cc(C(F)(F)F)c1` [Example 58, (4S,5R)-4-(hydroxymethyl)-5-[3-methoxy-5-(trifluoromethyl)phenyl]-2-oxo-N-(quinoxalin-5-ylmethyl)-1,3-oxazolidine-3-carboxamide], the IC95 with MRSA COL (MB5393) [1] (setting [3]) was over 200 µM. In addition, in the experiment on MRSA COL (MB5393) [2], the “MITC95 TarO inhibitor + 4 μg/mL IPM” value was determined as 1.56 µM and the “MITC95 TarO inhibitor + 8 μg/mL DCX” value stood at 6.25 µM.
As for `COc1cc([C@H]2OC(=O)N(C(=O)NCc3cccc4cncnc34)[C@H]2CO)cc(C(F)(F)F)c1` [Example 59, (4S,5R)-4-(hydroxymethyl)-5-[3-methoxy-5-(trifluoromethyl)phenyl]-2-oxo-N-(quinazolin-8-ylmethyl)-1,3-oxazolidine-3-carboxamide], in the experiment with MRSA COL (MB5393) [1] (setting [3]), the IC95 was over 200 µM. Further, in the experiment on MRSA COL (MB5393) [2], the “MITC95 TarO inhibitor + 4 μg/mL IPM” value turned out to be 1.95 µM and the “MITC95 TarO inhibitor + 8 μg/mL DCX” value was found to be 10.42 µM.
The matching figures for `COc1cc(C(F)(F)F)cc([C@H]2OC(=O)N(C(=O)NCc3cncc4cccnc34)[C@H]2C)n1` [Example 60, (4S,5S)—N-((1,6-naphthyridin-8-yl)methyl)-5-(6-methoxy-4-(trifluoromethyl)pyridin-2-yl)-4-methyl-2-oxooxazolidine-3-carboxamide]: over 200 µM, 0.33 µM and 1.45 µM.
In the case of `COc1cc(C(F)(F)F)cc([C@H]2OC(=O)N(C(=O)NCc3cncc4ccccc34)[C@H]2CO)n1` [Example 63, (4S,5S)-4-(hydroxymethyl)-N-(isoquinolin-4-ylmethyl)-5-(6-methoxy-4-(trifluoromethyl)-pyridin-2-yl)-2-oxooxazolidine-3-carboxamide], the IC95 in the experiment on MRSA COL (MB5393) [1] (20 h) was over 200 µM. Further, in the experiment on MRSA COL (MB5393) [2], the “MITC95 TarO inhibitor + 4 μg/mL IPM” value was 0.37 µM and the “MITC95 TarO inhibitor + 8 μg/mL DCX” value was determined as 1.13 µM.
In the case of `COc1cc(C(F)(F)F)cc([C@H]2OC(=O)N(C(=O)NCc3cncc4cccnc34)[C@H]2CO)n1` [Example 64, (4S,5S)-4-(hydroxymethyl)-5-[6-methoxy-4-(trifluoromethyl)pyridin-2-yl]-N-(1,6-naphthyridin-8-ylmethyl)-2-oxo-1,3-oxazolidine-3-carboxamide], the IC95 in the experiment with MRSA COL (MB5393) [1] (setting [3]) was over 200 µM. Also, in the experiment with MRSA COL (MB5393) [2], the “MITC95 TarO inhibitor + 4 μg/mL IPM” value came out at 0.94 µM and the “MITC95 TarO inhibitor + 8 μg/mL DCX” value came out at 4.38 µM.
The like results for `C[C@H]1[C@@H](c2cc(C(F)(F)F)cc(C(F)(F)F)c2)OC(=O)N1C(=O)CCc1cncc2ccccc12` [Example 65, (4S,5R)-5-(3,5-bis(trifluoromethyl)phenyl)-3-(3-(isoquinolin-4-yl)propanoyl)-4-methyloxazolidin-2-one] were, in that order, over 200 µM, 0.06 µM and 0.20 µM.
The matching figures for `C[C@H]1[C@@H](c2cc(Cl)cc(C(F)(F)F)c2)OC(=O)N1C(=O)CCc1cccc2ccccc12` [Example 66, (4S,5R)-5-[3-chloro-5-(trifluoromethyl)phenyl]-4-methyl-3-(3-naphthalen-1-ylpropanoyl)-1,3-oxazolidin-2-one]: over 200 µM, 0.03 µM and 0.20 µM.
Turning to `C[C@H]1[C@@H](c2cc(C(F)(F)F)cc(C(F)(F)F)c2)OC(=O)N1C(=O)CCc1cccc2ccccc12` [Example 67, (4S,5R)-5-[3,5-bis(trifluoromethyl)phenyl]-4-methyl-3-(3-naphthalen-1-ylpropanoyl)-1,3-oxazolidin-2-one], in the experiment on MRSA COL (MB5393) [1] (setting [3]), the IC95 was over 200 µM. The “MITC95 TarO inhibitor + 4 μg/mL IPM” value in the experiment with MRSA COL (MB5393) [2] was found to be 0.01 µM.
For the compound `C[C@H]1[C@@H](c2cc(C(F)(F)F)cc(C(F)(F)F)c2)OC(=O)N1C(=O)CCc1cccc2sccc12` [Example 68, (4S,5R)-3-[3-(1-benzothiophen-4-yl)propanoyl]-5-[3,5-bis(trifluoromethyl)phenyl]-4-methyl-1,3-oxazolidin-2-one], the IC95 with MRSA COL (MB5393) [1] (setting [3]) is over 200 µM. Besides, in the experiment with MRSA COL (MB5393) [2], the “MITC95 TarO inhibitor + 4 μg/mL IPM” value was 0.01 µM and the “MITC95 TarO inhibitor + 8 μg/mL DCX” value was found to be 0.20 µM.
The matching figures for `C[C@H]1[C@@H](c2cccc(OC(F)(F)F)c2)OC(=O)N1C(=O)CCc1cccc2ccccc12` [Example 69, (4S,5R)-4-methyl-3-(3-naphthalen-1-ylpropanoyl)-5-[3-(trifluoromethoxy)phenyl]-1,3-oxazolidin-2-one]: over 200 µM, 0.11 µM and 0.39 µM.
Take `C[C@H]1[C@@H](c2cc(F)cc(C(F)(F)F)c2)OC(=O)N1C(=O)CCc1cncc2ccccc12` [Example 70, (4S,5R)-5-[3-fluoro-5-(trifluoromethyl)phenyl]-3-(3-isoquinolin-4-ylpropanoyl)-4-methyl-1,3-oxazolidin-2-one]: the IC95 in the experiment with MRSA COL (MB5393) [1] (setting [3]) was over 200 µM. Also, in the experiment with MRSA COL (MB5393) [2], the “MITC95 TarO inhibitor + 4 μg/mL IPM” value worked out at 0.19 µM and the “MITC95 TarO inhibitor + 8 μg/mL DCX” value came to 0.91 µM.
`C[C@H]1[C@@H](c2cc(C(F)(F)F)cc(C(F)(F)F)c2)OC(=O)N1C(=O)Cc1cccc2ccccc12` [Example 71, (4S,5R)-5-[3,5-bis(trifluoromethyl)phenyl]-4-methyl-3-(naphthalen-1-ylacetyl)-1,3-oxazolidin-2-one]: the IC95 with MRSA COL (MB5393) [1] (setting [3]) was over 200 µM. Further, in the experiment with MRSA COL (MB5393) [2], the “MITC95 TarO inhibitor + 4 μg/mL IPM” value worked out at 0.89 µM.
For `C[C@H]1[C@@H](c2cccc(OC(F)(F)F)c2)OC(=O)N1C(=O)CCc1cncc2ccccc12` [Example 72, (4S,5R)-3-(3-isoquinolin-4-ylpropanoyl)-4-methyl-5-[3-(trifluoromethoxy)phenyl]-1,3-oxazolidin-2-one], the IC95 in the experiment on MRSA COL (MB5393) [1] (setting [3]) was over 200 µM. Moreover, in the experiment with MRSA COL (MB5393) [2], the “MITC95 TarO inhibitor + 4 μg/mL IPM” value worked out at 0.21 µM and the “MITC95 TarO inhibitor + 8 μg/mL DCX” value amounted to 1.56 µM.
Regarding `C[C@H]1[C@@H](c2cc(C(F)(F)F)cc(C(F)(F)F)c2)OC(=O)N1C(=O)CCc1cccc2ncccc12` [Example 73, (4S,5R)-5-[3,5-bis(trifluoromethyl)phenyl]-4-methyl-3-(3-quinolin-5-ylpropanoyl)-1,3-oxazolidin-2-one], the IC95 in the experiment with MRSA COL (MB5393) [1] (setting [3]) was over 200 µM. Also, in the experiment with MRSA COL (MB5393) [2], the “MITC95 TarO inhibitor + 4 μg/mL IPM” value was 0.56 µM and the “MITC95 TarO inhibitor + 8 μg/mL DCX” value turned out to be 6.25 µM.
`Cc1cc([C@H]2OC(=O)N(C(=O)CCc3cccc4cnccc34)[C@H]2C)cc(C(F)(F)F)c1` [Example 74, (4S,5R)-3-(3-isoquinolin-5-ylpropanoyl)-4-methyl-5-[3-methyl-5-(trifluoromethyl)phenyl]-1,3-oxazolidin-2-one]: the IC95 with MRSA COL (MB5393) [1] (setting [3]) was over 200 µM. In the experiment with MRSA COL (MB5393) [2], the “MITC95 TarO inhibitor + 4 μg/mL IPM” value came out at 0.30 µM and the “MITC95 TarO inhibitor + 8 μg/mL DCX” value was 6.25 µM.
On to `C[C@H]1[C@@H](c2cc(C(F)(F)F)cc(C(F)(F)F)c2)OC(=O)N1C(=O)CCc1cccc2ccncc12` [Example 75, (4S,5R)-5-[3,5-bis(trifluoromethyl)phenyl]-3-(3-isoquinolin-8-ylpropanoyl)-4-methyl-1,3-oxazolidin-2-one], for which the IC95 with MRSA COL (MB5393) [1] (setting [3]) was over 200 µM. Moreover, in the experiment with MRSA COL (MB5393) [2], the “MITC95 TarO inhibitor + 4 μg/mL IPM” value worked out at 0.13 µM and the “MITC95 TarO inhibitor + 8 μg/mL DCX” value was determined as 0.78 µM.
On to `O=C(CCc1cncc2ccccc12)N1CC(c2cc(C(F)(F)F)cc(C(F)(F)F)c2)OC1=O` (stereo not drawn) [Example 76, 5-[3,5-bis(trifluoromethyl)phenyl]-3-(3-isoquinolin-4-ylpropanoyl)-1,3-oxazolidin-2-one], for which the IC95 in the experiment with MRSA COL (MB5393) [1] (setting [3]) was over 200 µM. Moreover, the “MITC95 TarO inhibitor + 4 μg/mL IPM” value with MRSA COL (MB5393) [2] worked out at 0.39 µM.
For the compound `Cc1cc(C)cc([C@H]2OC(=O)N(C(=O)CCc3cncc4ccccc34)[C@H]2C)c1` [Example 77, (4S,5R)-5-(3,5-dimethylphenyl)-3-(3-isoquinolin-4-ylpropanoyl)-4-methyl-1,3-oxazolidin-2-one], the IC95 with MRSA COL (MB5393) [1] (setting [3]) is over 200 µM. Also, in the experiment on MRSA COL (MB5393) [2], the “MITC95 TarO inhibitor + 4 μg/mL IPM” value came out at 0.63 µM and the “MITC95 TarO inhibitor + 8 μg/mL DCX” value was determined as 5.21 µM.
